Source: US10543249B2, “Pharmaceutical composition for a sustained release of lanreotide” (IPSEN PHARMA S.A.S., priority 2013, dated 2020)

Test: Solubility of lanreotide acetate
Assay type: physicochemical
Description: The term “co-solvent” as used in the present application refers to a solvent or a mixture of solvents which allows the incorporation of the active ingredient in the composition to obtain the required dose in a suitable volume and matching the injectability criteria.
A composition according to the present invention comprises a co-solvent which allows obtaining the required injectability criteria of the pharmaceutical compositions. The co-solvent used in the composition according to the present invention is hydrosoluble. Moreover, the solubility, in the hydrosoluble co-solvent, of lanreotide or its salts used according to the present invention is equal or higher than 8% (w/v) at room temperature. For comparison, the solubility of lanreotide acetate is less than 4% in water, aqueous acetic acid (at the concentration of 0.1 or 1 mol/mL), aqueous NaCl (0.9%), or polysorbate (0.01%).

Measured: solubility of lanreotide acetate

CC(C)[C@@H]1NC(=O)[C@H](CCCCN)NC(=O)[C@@H](Cc2c[nH]c3ccccc23)NC(=O)[C@H](Cc2ccc(O)cc2)NC(=O)[C@@H](NC(=O)[C@H](N)Cc2ccc3ccccc3c2)CSSC[C@@H](C(=O)N[C@H](C(N)=O)[C@@H](C)O)NC1=O [lanreotide acetate]
less than 4%: in aqueous NaCl (0.9%) | in aqueous acetic acid (at the concentration of 0.1 or 1 mol/mL) | in polysorbate (0.01%) | in water
